The subject of test [1] is A549 Human NSCLC Xenografts. Put plainly: Influence of time interval between FMdC and CDDP, A549 human NSCLC xenografts, single dose. It counts as in vivo, nu/nu mice. The conditions noted are these: single agent, single dose i.p.; FMdC 200 mg/kg, CDDP 6 mg/kg. The text has this: (§1) This example evaluated the effect of FMdC in combination with cisplatin in two human non-small-cell lung cancer (NSCLC) xenograft models. This example examined the influence of the time interval between FMdC and cisplatin administration.
(§2) Xenogeneic NSCLC tumors of A549 cells or Calu-6 cells (available through ATCC, Rockville, Md.) were induced by intradermal injection of approximately 5×10^6 cells into the flanks of female nu/nu mice. Two to three weeks after tumor cell inoculation, when the tumors were approximately 10 mm^3 in size, treatment with FMdC and/or cisplatin solution was administered intraperitoneally (i.p.) in a volume of approximately 10 μL per gram of mouse body weight. Six to eight animals were used per treatment group.
(§3) The injectable solutions were prepared as follows: Lyophilized FMdC was reconstituted with sterile saline to a concentration of 2 or 20 mg/mL; […] with sterile saline to a concentration of 2 mg/mL; and cisplatin solution was prepared from lyophilized cisplatin (Cisplatin for Injection, David Bull Laboratories) by reconstitution with sterile water to a concentration of 0.4 or 0.6 mg/mL.
(§4) Tumor growth and animal body weight were determined twice weekly for up to 30 days. Tumor volume quadrupling time (TVQT) was used as the study endpoint. Tumor growth delay (TGD) is the difference between TVQTs of a treated group and untreated control.
(Xenograft models place foreign cells or tissue in a host animal.)

Test [2] deals with A549 Human NSCLC Xenografts. Put plainly: Anti-tumor activity, A549 human NSCLC xenografts, multiple dose. It counts as in vivo, nu/nu mice. The note with it: i.p.; for TVQT (days) (M ± SE), tumor volume quadrupling time: FMdC or gemcitabine 20 mg/kg Day 0, 3, 7, 10, CDDP 4 mg/kg Day 0, 7, FMdC 15 minutes prior to cisplatin; for TGD (days) (M ± SE), tumor growth delay: FMdC or gemcitabine 20 mg/kg Day 0, 3, 7, 10, CDDP 4 mg/kg Day 0, 7, difference of TVQT vs untreated control.
From the text: This example evaluated the effect of FMdC in combination with cisplatin in a human non-small-cell lung cancer (NSCLC) xenograft model. This combination was compared to the administration of the combination of gemcitabine with cisplatin. Gemcitabine (Gemzar®, Eli Lilly and Company) is 2′-deoxy-2′,2′-difluorocytidine (dFdC).
Xenogeneic NSCLC tumors of A549 cells (available through ATCC, Rockville, Md.) were induced by intradermal injection of approximately 5×10^6 cells into the flanks of female nu/nu mice. Two to three weeks after tumor cell inoculation, when the tumors were approximately 10 mm^3 in size, treatment with FMdC, gemcitabine or cisplatin solution was administered intraperitoneally (i.p.) in a volume of approximately 10 μL per gram of mouse body weight. Six to eight animals were used per treatment group.
The injectable solutions were prepared as follows: Lyophilized FMdC was reconstituted with sterile saline to a concentration of 2 or 20 mg/mL; gemcitabine was reconstituted with sterile saline to a concentration of 2 mg/mL; and cisplatin solution was prepared from lyophilized cisplatin (Cisplatin for Injection, David Bull Laboratories) by reconstitution with sterile water to a concentration of 0.4 or 0.6 mg/mL.
For this multiple treatment regimens, FMdC or gemcitabine was administered twice a week for two weeks at 20 mg/kg and cisplatin was administered once a week for two weeks at 4 mg/kg. FMdC was administered by injection 15 minutes prior to the administration of cisplatin.
as §4

The next test concerns Calu-6. The experiment in a line: MTT cell growth inhibition assay, Calu-6 lung carcinoma cells. It counts as cell-based, human. The note with it: Calu-6 cells, 72 hours exposure. Here is the method: (§5) The antiproliferative activity of FMdC in combination with cisplatin on growth inhibition in human carcinoma cell lines in vitro was studied using the following method.
(§6) Two lung carcinoma cell lines, A549 and Calu-6, (available through ATCC, Rockville, Md.), were cultured in F12K medium with 10% fetal bovine serum at an atmosphere of 5% CO2 at 37° C. All cells were exposed to both FMdC and cisplatin in different concentrations for 72 hours.
(§7) Cell growth inhibition was determined by measuring the metabolic activity of cells using the MTT (tetrazolium salt) assay. For the MTT assays, the cells were seeded at 4×10^3 in 100 μL per well in a 96-well microtiter culture plate. The concentration of FMdC ranged from 10 nM to 100 μM and the concentration of cisplatin ranged from 1 μM to 10 mM. At the end of the treatment, tetrazolium salt (MTT) was added to each well and then solubilized. The microtiter plate was then measured (O.D. at 570 nm) using an ELISA plate reader. The 50% inhibitory concentrations (IC50) values of FMdC and cisplatin as single agents and in combination were determined.

In a further test the test system is A549. Put plainly: MTT cell growth inhibition assay, A549 lung carcinoma cells. It counts as cell-based, human. The conditions noted are these: 72 hours exposure. Here is the method: as §5, §6, §7
For test [3], the system named is Calu-6 Human NSCLC Xenografts. Put plainly: Influence of time interval between FMdC and CDDP, Calu-6 human NSCLC xenografts, single dose. It counts as in vivo, nu/nu mice. The conditions noted are these: single agent, single dose i.p.; FMdC 200 mg/kg, CDDP 6 mg/kg.
From the text: as §1, §2, §3, §4

As to `N.N.[Cl][Pt][Cl]` [CDDP, cis-diamminedichloroplatinum], the “TGD (days) (M ± SE)” value in test [1] came out at 1.9 ± 2.0 days; in test [3], 8.8 ± 1.6 days. The “TVQT (days) (M ± SE)” value turned out to be 16.1 ± 1.8 days in test [1] and 18.1 ± 1.5 days in test [3]. The “TVQT (days) (M ± SE), tumor volume quadrupling time” value in test [2] is on record as 18.1 ± 0.9 days. Also, the “TGD (days) (M ± SE), tumor growth delay” value in test [2] was 1.3 ± 1.5 days. The “Cell growth inhibition / cell death (MTT assay)” value in the test with Calu-6 and with A549 was “not effective” throughout.
`Nc1ccn([C@@H]2O[C@H](CO)[C@@H](O)/C2=C\F)c(=O)n1` [FMdC, (E)-2′-deoxy-2′-(fluoromethylene)cytidine]: the figures for the “TGD (days) (M ± SE)” value in test [1] and in test [3] were 3.6 ± 1.3 days and 2.0 ± 0.6 days, respectively. For the same compound, the “TVQT (days) (M ± SE)” value in test [1] amounted to 17.8 ± 1.0 days; in test [3], 11.3 ± 0.4 days. In addition, the “TVQT (days) (M ± SE), tumor volume quadrupling time” value in test [2] came to 19.8 ± 1.1 days. In addition, the “TGD (days) (M ± SE), tumor growth delay” value in test [2] is recorded as 3.0 ± 1.6 days. Also, the “Cell growth inhibition / cell death (MTT assay)” value in the test on Calu-6 and in the test on A549 was “not effective” in each case.
Regarding `Nc1ccn([C@@H]2O[C@H](CO)[C@@H](O)C2(F)F)c(=O)n1` [Gemcitabine, 2′-deoxy-2′,2′-difluorocytidine], in test [2], the “TVQT (days) (M ± SE), tumor volume quadrupling time” value came out at 18.7 ± 1.0 days and the “TGD (days) (M ± SE), tumor growth delay” value is 1.9 ± 1.6 days.

These data come from patent publication US6544962B1, “Methods for treating cellular proliferative disorders” (Matrix Pharmaceutical, Inc., priority 2000, dated 2003).
